Reference: PubChem BioAssay AID1963840 (Molecular Pharmacology Branch, DTP, NCI, 2024)

Tested on: 695427-040-R-J1-PDC complex spheroid viability
Experiment: Anticancer human tumor 695427-040-R-J1-PDC patient-derived colon adenocarcinoma cell line growth inhibition [POLQ]
Details: for IC50: curve of first compound; for viability, T/C: stronger effect = lower value
Outline: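 Three-cell-type spheroids modelling solid tumor plus stroma served as the readout system; POL inhibitors were tested individually and in combination, concentration ranges set by clinical Cmax where known.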

[1] = second compound 0.0316 µM, first compound 0.00316 µM
[2] = second compound 0.0316 µM, first compound 0.01 µM
[3] = second compound 0.0316 µM, first compound 0.0316 µM
[4] = second compound 0.0316 µM, first compound 0.1 µM
[5] = second compound 0.0316 µM, first compound 0.316 µM
[6] = second compound 0.0316 µM, first compound 1 µM
[7] = second compound 0.1 µM, first compound 0.00316 µM
[8] = second compound 0.1 µM, first compound 0.01 µM
[9] = second compound 0.1 µM, first compound 0.0316 µM
[10] = second compound 0.1 µM, first compound 0.1 µM
[11] = second compound 0.1 µM, first compound 0.316 µM
[12] = second compound 0.1 µM, first compound 1 µM
[13] = second compound 0.316 µM, first compound 0.00316 µM
[14] = second compound 0.316 µM, first compound 0.01 µM
[15] = second compound 0.316 µM, first compound 0.0316 µM
[16] = second compound 0.316 µM, first compound 0.1 µM
[17] = second compound 0.316 µM, first compound 0.316 µM
[18] = second compound 0.316 µM, first compound 1 µM
[19] = second compound 1 µM, first compound 0.00316 µM
[20] = second compound 1 µM, first compound 0.01 µM
[21] = second compound 1 µM, first compound 0.0316 µM
[22] = second compound 1 µM, first compound 0.1 µM
[23] = second compound 1 µM, first compound 0.316 µM
[24] = second compound 1 µM, first compound 1 µM
[25] = second compound 3.16 µM, first compound 0.00316 µM
[26] = second compound 3.16 µM, first compound 0.01 µM
[27] = second compound 3.16 µM, first compound 0.0316 µM
[28] = second compound 3.16 µM, first compound 0.1 µM
[29] = second compound 3.16 µM, first compound 0.316 µM
[30] = second compound 3.16 µM, first compound 1 µM
[31] = second compound 10 µM, first compound 0.00316 µM
[32] = second compound 10 µM, first compound 0.01 µM
[33] = second compound 10 µM, first compound 0.0316 µM
[34] = second compound 10 µM, first compound 0.1 µM
[35] = second compound 10 µM, first compound 0.316 µM
[36] = second compound 10 µM, first compound 1 µM
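Further: spheroids exposed to compounds for seven days.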
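Wherever viability, T/C is given: 100% = DMSO vehicle control viability.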

C=CCn1c(=O)c2cnc(Nc3ccc(N4CCN(C)CC4)cc3)nc2n1-c1cccc(C(C)(C)O)n1 + Cc1cccc(N(C)C(=O)C2C(O)CCN2c2nc(C)cc(C(F)(F)F)c2C#N)c1
IC50 (second compound 0.0316 µM): > 1000 nM | IC50 (second compound 0.1 µM): > 1000 nM | IC50 (second compound 0.316 µM): > 1000 nM | IC50 (second compound 1 µM): > 1000 nM | IC50 (second compound 3.16 µM): > 1000 nM | IC50 (second compound 10 µM): > 1000 nM | viability, T/C [1]: 100% | viability, T/C [2]: 99.4% | viability, T/C [3]: 101% | viability, T/C [4]: 92.6% | viability, T/C [5]: 94.3% | viability, T/C [6]: 83.6% | viability, T/C [7]: 115% | viability, T/C [8]: 108% | viability, T/C [9]: 93.2% | viability, T/C [10]: 103% | viability, T/C [11]: 93.4% | viability, T/C [12]: 69.5% | viability, T/C [13]: 105% | viability, T/C [14]: 121% | viability, T/C [15]: 95.5% | viability, T/C [16]: 92.5% | viability, T/C [17]: 107% | viability, T/C [18]: 90.1% | viability, T/C [19]: 109% | viability, T/C [20]: 95.9% | viability, T/C [21]: 102% | viability, T/C [22]: 100% | viability, T/C [23]: 98.1% | viability, T/C [24]: 64.2% | viability, T/C [25]: 91.8% | viability, T/C [26]: 90.8% | viability, T/C [27]: 88.9% | viability, T/C [28]: 89.3% | viability, T/C [29]: 91.4% | viability, T/C [30]: 69.5% | viability, T/C [31]: 93.9% | viability, T/C [32]: 89.3% | viability, T/C [33]: 87.7% | viability, T/C [34]: 92.7% | viability, T/C [35]: 91.4% | viability, T/C [36]: 67.9%

CCCS(=O)(=O)Nc1ccc(F)c(C(=O)c2c[nH]c3ncc(-c4ccc(Cl)cc4)cc23)c1F + Cc1cccc(N(C)C(=O)C2C(O)CCN2c2nc(C)cc(C(F)(F)F)c2C#N)c1
IC50 (second compound 0.0316 µM): > 10000 nM | IC50 (second compound 0.1 µM): > 10000 nM | IC50 (second compound 0.316 µM): > 10000 nM | IC50 (second compound 1 µM): > 10000 nM | IC50 (second compound 3.16 µM): > 10000 nM | IC50 (second compound 10 µM): > 10000 nM | viability, T/C [3]: 113% | viability, T/C [4]: 105% | viability, T/C [5]: 102% | viability, T/C [6]: 100% | viability, T/C (second compound 0.0316 µM, first compound 3.16 µM): 116% | viability, T/C (second compound 0.0316 µM, first compound 10 µM): 86.8% | viability, T/C [9]: 129% | viability, T/C [10]: 111% | viability, T/C [11]: 104% | viability, T/C [12]: 109% | viability, T/C (second compound 0.1 µM, first compound 3.16 µM): 111% | viability, T/C (second compound 0.1 µM, first compound 10 µM): 82.6% | viability, T/C [15]: 101% | viability, T/C [16]: 118% | viability, T/C [17]: 96.3% | viability, T/C [18]: 109% | viability, T/C (second compound 0.316 µM, first compound 3.16 µM): 123% | viability, T/C (second compound 0.316 µM, first compound 10 µM): 77.5% | viability, T/C [21]: 112% | viability, T/C [22]: 111% | viability, T/C [23]: 102% | viability, T/C [24]: 108% | viability, T/C (second compound 1 µM, first compound 3.16 µM): 127% | viability, T/C (second compound 1 µM, first compound 10 µM): 73.2% | viability, T/C [27]: 100% | viability, T/C [28]: 104% | viability, T/C [29]: 103% | viability, T/C [30]: 114% | viability, T/C (second compound 3.16 µM, first compound 3.16 µM): 112% | viability, T/C (second compound 3.16 µM, first compound 10 µM): 104% | viability, T/C [33]: 101% | viability, T/C [34]: 100% | viability, T/C [35]: 92% | viability, T/C [36]: 98.8% | viability, T/C (second compound 10 µM, first compound 3.16 µM): 108% | viability, T/C (second compound 10 µM, first compound 10 µM): 77.9%

CC[C@@]1(O)C(=O)OCc2c1cc1n(c2=O)Cc2cc3c(CN(C)C)c(O)ccc3nc2-1 + Cc1cccc(N(C)C(=O)C2C(O)CCN2c2nc(C)cc(C(F)(F)F)c2C#N)c1
IC50 (second compound 0.0316 µM): > 100 nM | IC50 (second compound 0.1 µM): > 100 nM | IC50 (second compound 0.316 µM): > 100 nM | IC50 (second compound 1 µM): > 100 nM | IC50 (second compound 3.16 µM): > 100 nM | IC50 (second compound 10 µM): > 100 nM | viability, T/C (second compound 0.0316 µM, first compound 0.000316 µM): 110% | viability, T/C (second compound 0.0316 µM, first compound 0.001 µM): 98.7% | viability, T/C [1]: 104% | viability, T/C [2]: 94.5% | viability, T/C [3]: 99.4% | viability, T/C [4]: 88.5% | viability, T/C (second compound 0.1 µM, first compound 0.000316 µM): 109% | viability, T/C (second compound 0.1 µM, first compound 0.001 µM): 98.5% | viability, T/C [7]: 94.7% | viability, T/C [8]: 104% | viability, T/C [9]: 97.5% | viability, T/C [10]: 88.7% | viability, T/C (second compound 0.316 µM, first compound 0.000316 µM): 99.1% | viability, T/C (second compound 0.316 µM, first compound 0.001 µM): 95.9% | viability, T/C [13]: 98.2% | viability, T/C [14]: 91.5% | viability, T/C [15]: 101% | viability, T/C [16]: 87.3% | viability, T/C (second compound 1 µM, first compound 0.000316 µM): 98.2% | viability, T/C (second compound 1 µM, first compound 0.001 µM): 93.4% | viability, T/C [19]: 97.5% | viability, T/C [20]: 97.1% | viability, T/C [21]: 93.7% | viability, T/C [22]: 86.9% | viability, T/C (second compound 3.16 µM, first compound 0.000316 µM): 92.4% | viability, T/C (second compound 3.16 µM, first compound 0.001 µM): 98.5% | viability, T/C [25]: 91.7% | viability, T/C [26]: 98.4% | viability, T/C [27]: 101% | viability, T/C [28]: 81.7% | viability, T/C (second compound 10 µM, first compound 0.000316 µM): 85.6% | viability, T/C (second compound 10 µM, first compound 0.001 µM): 89.4% | viability, T/C [31]: 104% | viability, T/C [32]: 90% | viability, T/C [33]: 87.5% | viability, T/C [34]: 77.7%
